Results as given in patent US20140323504A1, “Pyrazolo[4,3-c]Pyridine Derivatives As Kinase Inhibitors” (Cellzome Limited, priority 2011, published 2014).
Entries after “also recorded” stand apart in the source; their conditions may differ.

Molecular target: T1, JAK3 (Homo sapiens, UniProt P52333)
T1 sequence (P52333 1-1124): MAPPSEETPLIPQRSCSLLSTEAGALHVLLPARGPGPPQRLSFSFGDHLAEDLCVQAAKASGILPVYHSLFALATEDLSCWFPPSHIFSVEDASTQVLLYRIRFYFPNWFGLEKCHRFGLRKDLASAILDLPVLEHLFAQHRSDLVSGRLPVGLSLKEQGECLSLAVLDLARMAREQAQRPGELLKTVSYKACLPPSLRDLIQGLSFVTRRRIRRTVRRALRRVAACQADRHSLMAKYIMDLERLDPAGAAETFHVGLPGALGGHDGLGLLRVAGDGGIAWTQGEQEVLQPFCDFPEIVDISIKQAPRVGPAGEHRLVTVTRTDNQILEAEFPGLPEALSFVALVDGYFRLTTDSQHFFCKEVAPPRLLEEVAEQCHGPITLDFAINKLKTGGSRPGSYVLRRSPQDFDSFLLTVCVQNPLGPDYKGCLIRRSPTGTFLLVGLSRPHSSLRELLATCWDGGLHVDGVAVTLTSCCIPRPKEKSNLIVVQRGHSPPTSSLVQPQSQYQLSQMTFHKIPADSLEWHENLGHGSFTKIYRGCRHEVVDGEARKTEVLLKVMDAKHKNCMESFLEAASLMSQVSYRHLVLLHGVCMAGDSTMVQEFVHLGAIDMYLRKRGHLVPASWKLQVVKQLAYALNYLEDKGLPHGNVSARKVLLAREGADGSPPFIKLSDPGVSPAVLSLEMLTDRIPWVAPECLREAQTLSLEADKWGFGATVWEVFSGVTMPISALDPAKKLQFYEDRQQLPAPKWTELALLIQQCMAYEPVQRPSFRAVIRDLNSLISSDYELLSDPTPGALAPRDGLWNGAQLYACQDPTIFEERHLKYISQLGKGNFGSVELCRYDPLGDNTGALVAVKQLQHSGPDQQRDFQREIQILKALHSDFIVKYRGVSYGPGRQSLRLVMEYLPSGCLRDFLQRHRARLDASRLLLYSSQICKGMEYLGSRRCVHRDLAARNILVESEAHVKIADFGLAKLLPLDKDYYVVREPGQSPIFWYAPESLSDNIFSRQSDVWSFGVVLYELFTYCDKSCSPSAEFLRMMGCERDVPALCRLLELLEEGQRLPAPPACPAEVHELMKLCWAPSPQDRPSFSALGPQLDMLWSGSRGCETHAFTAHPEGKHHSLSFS
Assay: Mass spectrometry identification of a JAK3 peptide modified by compound
Type: binding
Design: endogenous in cells; host or cells: Jurkat cells (ATCC TIB-152, clone E6-1) lysate; immunoprecipitated with anti-JAK3 antibody
Conditions: Jurkat cell lysate, 10 μM compound, 45 minutes, JAK3 immunoprecipitation, LC-MS/MS
Procedure: Mass spectrometry analysis of immunoprecipitated JAK3 after compound treatment was used to determine whether compound example 1 covalently binds to JAK3. Jurkat cell lysate was pre-incubated with 10 μM of compound example 1 for 45 minutes. Control samples were incubated without compound (DMSO controls). Subsequently JAK3 was immunoprecipitated with an anti-JAK3 antibody (Abeam ab45141). In addition, a control experiment was performed with anti-IgG (mock immunoprecipitation). The precipitated proteins were separated by SDS-polyacrylamide gel electrophoresis. The gel was stained with colloidal Coomassie and stained areas of each gel lane were cut out and subjected to in-gel proteolytic digestion with trypsin. The peptides originating from the three samples were labeled with iTRAQ reagents as shown in Table 13 and the combined samples were analyzed with a nano-flow liquid chromatography system coupled online to a tandem mass spectrometer (LC-MS/MS) experiment followed by iTRAQ reporter ion quantification in the MSMS spectra (Ross et al., 2004. Mol. Cell. Proteomics 3(12):1154-1169). The gel area containing JAK3 was analysed for 270 minutes with HCDiq (high mass accuracy MSMS spectra) on a Orbitrap Velos mass spectrometer. For the Mascot search standard parameters plus a variable modification of cysteine by compound example 1 was used. […]

C=CC(=O)Nc1cccc(Cn2ncc3cnc(Nc4cnn(C)c4)nc32)c1 [Example 1, N-(3-((6-((1-Methyl-1H-pyrazol-4-yl)amino)-1H-pyrazolo[3,4-d]pyrimidin-1-yl)methyl)phenyl)acrylamide]
covalent binding to JAK3 (modified residue/peptide): modified at cysteine 909; also recorded: covalently bound to cystein residue 909 (Cys909) of JAK3
